Reference: ChEMBL document CHEMBL5614434, “A Lysosome-Targeting hNEU1 Inhibitor Treats Myocardial Infarction: A Potential Therapeutic Breakthrough” (J Med Chem, 2024)
Calls of active or inactive are those of the source. No cut-off for these calls is given here.

Assays:
H9c2 [1] = experiment: Cytotoxicity against rat H9c2 cells assessed as cell viability at 0.001 to 50 uM under normoxia condition by CCK-8 method; type: toxicity, cell-based; conditions: h9c2, 50 µM, dose 0.001-50 µM
H9c2 [2] = experiment: Cytotoxicity against isoproterenol-induced rat H9c2 cells assessed as cell viability at 0.001 to 1 uM under normoxia condition by CCK-8 method; type: toxicity, cell-based; conditions: h9c2, 1 µM, dose 0.001-1 µM
H9c2 [3] = experiment: Induction of apoptosis in isoproterenol-induced rat H9c2 cells assessed as early apoptotic cells at 0.1 micromol/L by annexin V-FITC and PI staining based flow cytometry analysis (reference value: 10.37%); type: toxicity, cell-based; conditions: h9c2, 0.1 µM, dose 0.1 µmol/L
H9c2 [4] = experiment: Induction of apoptosis in isoproterenol-induced rat H9c2 cells assessed as late apoptotic cells at 0.1 micromol/L by annexin V-FITC and PI staining based flow cytometry analysis (reference value: 11.49%); type: toxicity, cell-based; conditions: h9c2, 0.1 µM, dose 0.1 µmol/L
H9c2 [5] = experiment: Induction of ATP production in isoproterenol-induced rat H9c2 cells at 0.1 micromol/L by fluorescence based analysis; type: functional; conditions: dose 0.1 µmol/L
H9c2 [6] = experiment: Inhibition of ROS production in isoproterenol-induced rat H9c2 cells assessed as reduction in DCF value at 0.1 uM by DCFH-DA staining based flow cytometry analysis (reference value: 371.9); type: functional
[7] = Drug uptake in lysosomes of rat H9c2 cells assessed as time required for compound concentration in lysosomes to exceed the cell lysates by HPLC analysis; type: ADME, subcellular, Lysosome
H9c2 [8] = experiment: Induction of autophagy in isoproterenol-induced rat H9c2 cells assessed as increase in LC3-I to LC3-II conversion by confocal microscopy based analysis; type: functional, cell-based
H9c2 [9] = experiment: Induction of autophagy in isoproterenol-induced rat H9c2 cells assessed as downregulation of PARP1 expression by Western blot analysis; type: functional, cell-based
H9c2 [10] = experiment: Induction of autophagy in isoproterenol-induced rat H9c2 cells assessed as downregulation of P62 expression by Western blot analysis; type: functional, cell-based
H9c2 [11] = experiment: Induction of autophagy in isoproterenol-induced rat H9c2 cells transfected with GFP-tagged LC3 assessed as increase in number of green fluorescence by confocal microscopy analysis; type: functional, cell-based
H9c2 [12] = experiment: Upregulation of cytochrome-c level in isoproterenol-induced rat H9c2 cells at 0.01 to 1 uM by Western blot analysis; type: functional, cell-based; conditions: dose 0.01-1 µM
H9c2 [13] = experiment: Upregulation of Ho-1 level in isoproterenol-induced rat H9c2 cells at 0.01 to 1 uM by Western blot analysis; type: functional, cell-based; conditions: dose 0.01-1 µM
H9c2 [14] = experiment: Downregulation of mTORC1 level in isoproterenol-induced rat H9c2 cells by Western blot analysis; type: functional, cell-based; conditions: dose 0.01-1 µM
[15] = Metabolic stability in mouse liver microsomes assessed as half life measured upto 60 mins in presence of NADPH regenerating system by LC-MS/MS analysis; type: ADME, Microsome
[16] = Metabolic stability in mouse liver microsomes assessed as clearance measured upto 60 mins in presence of NADPH regenerating system by LC-MS/MS analysis; type: ADME, Microsome; conditions: read-out: CLH
[17] = Metabolic stability in mouse liver microsomes assessed as parent compound remaining measured after 0.5 mins in presence of NADPH regenerating system by LC-MS/MS analysis; type: ADME, Microsome; conditions: read-out: Stability
[18] = Metabolic stability in mouse liver microsomes assessed as parent compound remaining measured after 15 mins in presence of NADPH regenerating system by LC-MS/MS analysis; type: ADME, Microsome; conditions: read-out: Stability
[19] = Metabolic stability in mouse liver microsomes assessed as parent compound remaining measured after 30 mins in presence of NADPH regenerating system by LC-MS/MS analysis; type: ADME, Microsome; conditions: read-out: Stability
[20] = Metabolic stability in mouse liver microsomes assessed as parent compound remaining measured after 45 mins in presence of NADPH regenerating system by LC-MS/MS analysis; type: ADME, Microsome; conditions: read-out: Stability
[21] = Metabolic stability in mouse liver microsomes assessed as parent compound remaining measured after 60 mins in presence of NADPH regenerating system by LC-MS/MS analysis; type: ADME, Microsome; conditions: read-out: Stability
[22] = Metabolic stability in mouse liver microsomes assessed as parent compound remaining measured after 0.5 mins in absence of NADPH regenerating system by LC-MS/MS analysis; type: ADME, Microsome; conditions: read-out: Stability
[23] = Metabolic stability in mouse liver microsomes assessed as parent compound remaining measured after 15 mins in absence of NADPH regenerating system by LC-MS/MS analysis; type: ADME, Microsome; conditions: read-out: Stability
[24] = Metabolic stability in mouse liver microsomes assessed as parent compound remaining measured after 30 mins in absence of NADPH regenerating system by LC-MS/MS analysis; type: ADME, Microsome; conditions: read-out: Stability
[25] = Metabolic stability in mouse liver microsomes assessed as parent compound remaining measured after 45 mins in absence of NADPH regenerating system by LC-MS/MS analysis; type: ADME, Microsome; conditions: read-out: Stability
[26] = Metabolic stability in mouse liver microsomes assessed as parent compound remaining measured after 60 mins in absence of NADPH regenerating system by LC-MS/MS analysis; type: ADME, Microsome; conditions: read-out: Stability
[27] = Half life in male C57/6J mouse at 15 mg/kg, ip measured upto 24 hrs by LC-MS/MS analysis; type: ADME, organism-based; conditions: in vivo
[28] = Tmax in male C57/6J mouse at 15 mg/kg, ip measured upto 24 hrs by LC-MS/MS analysis; type: ADME, organism-based; conditions: in vivo
[29] = Cmax in male C57/6J mouse at 15 mg/kg, ip measured upto 24 hrs by LC-MS/MS analysis; type: ADME, organism-based; conditions: in vivo
[30] = AUClast in male C57/6J mouse at 15 mg/kg, ip measured upto 24 hrs by LC-MS/MS analysis; type: ADME, organism-based; conditions: in vivo
[31] = AUC infinity in male C57/6J mouse at 15 mg/kg, ip measured upto 24 hrs by LC-MS/MS analysis; type: ADME, organism-based; conditions: in vivo
[32] = Observed MRT(infinity) in male C57/6J mouse at 15 mg/kg, ip measured upto 24 hrs by LC-MS/MS analysis; type: ADME, organism-based; conditions: in vivo
[33] = Dose normalized AUClast in male C57/6J mouse at 15 mg/kg, ip measured upto 24 hrs by LC-MS/MS analysis; type: ADME, organism-based; conditions: in vivo
[34] = Apparent volume of distribution during terminal phase in male C57/6J mouse at 15 mg/kg, ip measured upto 24 hrs by LC-MS/MS analysis; type: ADME, organism-based; conditions: in vivo, read-out: Vz/F
[35] = Apparent […] clearance in male C57/6J mouse at 15 mg/kg, ip measured upto 24 hrs by LC-MS/MS analysis; type: ADME, organism-based; conditions: in vivo
[36] = Toxicity in isoproterenol-induced male C57/6J mouse model assessed as recovery of growth rate at 15 mg/kg, ip pretreated with isoproterenol for 3 days followed by compound addition and measured after 3 days; type: organism-based; conditions: in vivo, 72 h, time 3 day
Mus musculus [37] = experiment: Cardioprotective activity against isoproterenol-induced myocardial injury in C57/6J mouse model assessed as reduction in cardiac swelling size at 15 mg/kg, ip pretreated with isoproterenol for 3 days followed by compound addition and measured after 3 days (reference value: 5.15 millimeter); type: functional; conditions: time 3 day
Mus musculus [38] = experiment: Cardioprotective activity against isoproterenol-induced myocardial injury in C57/6J mouse model assessed as decrease in heart weight ratio at 15 mg/kg, ip pretreated with isoproterenol for 3 days followed by compound addition and measured after 3 days (reference value: 0.56 %); type: functional; set-up: scale not given: the % may be the effect or the level left; conditions: time 3 day
Mus musculus [39] = experiment: Cardioprotective activity against isoproterenol-induced myocardial injury in C57/6J mouse model assessed as reduction in neutrophil ratio at 15 mg/kg, ip pretreated with isoproterenol for 3 days followed by compound addition and measured after 3 days; type: functional, organism-based; conditions: time 3.0 day
Mus musculus [40] = experiment: Cardioprotective activity against isoproterenol-induced myocardial injury in C57/6J mouse model assessed as reduction in neutrophil count at 15 mg/kg, ip pretreated with isoproterenol for 3 days followed by compound addition and measured after 3 days; type: functional, organism-based; conditions: time 3.0 day
Mus musculus [41] = experiment: Cardioprotective activity against isoproterenol-induced myocardial injury in C57/6J mouse model assessed as reduction in eosinophil ratio at 15 mg/kg, ip pretreated with isoproterenol for 3 days followed by compound addition and measured after 3 days; type: functional, organism-based; conditions: time 3.0 day
Mus musculus [42] = experiment: Cardioprotective activity against isoproterenol-induced myocardial injury in C57/6J mouse model assessed as reduction in eosinophil count at 15 mg/kg, ip pretreated with isoproterenol for 3 days followed by compound addition and measured after 3 days; type: functional, organism-based; conditions: time 3.0 day
Mus musculus [43] = experiment: Cardioprotective activity against isoproterenol-induced myocardial injury in C57/6J mouse model assessed as appearance of clear cell boundaries in heart at 15 mg/kg, ip pretreated with isoproterenol for 3 days followed by compound addition and measured after 3 days by H and E staining based analysis; type: functional, organism-based; conditions: time 3.0 day
Mus musculus [44] = experiment: Cardioprotective activity against isoproterenol-induced myocardial injury in C57/6J mouse model assessed as decrease in pericardial thickness at 15 mg/kg, ip pretreated with isoproterenol for 3 days followed by compound addition and measured after 3 days by H and E staining based analysis; type: functional, organism-based; conditions: time 3.0 day
Mus musculus [45] = experiment: Cardioprotective activity against isoproterenol-induced myocardial injury in C57/6J mouse model assessed as inhibition of collagen fiber proliferation at 15 mg/kg, ip pretreated with isoproterenol for 3 days followed by compound addition and measured after 3 days by masson staining based analysis; type: functional, organism-based; conditions: time 3.0 day
Mus musculus [46] = experiment: Cardioprotective activity against isoproterenol-induced myocardial injury in C57/6J mouse model assessed as reduction in pericardial thickness at 15 mg/kg, ip pretreated with isoproterenol for 3 days followed by compound addition and measured after 3 days by masson staining based analysis; type: functional, organism-based; conditions: time 3.0 day
Mus musculus [47] = experiment: Cardioprotective activity against isoproterenol-induced myocardial injury in C57/6J mouse model assessed as suppression of mTORC1 overexpression at 15 mg/kg, ip pretreated with isoproterenol for 3 days followed by compound addition and measured after 3 days by immunohistochemistry analysis; type: functional, organism-based; conditions: time 3.0 day
Mus musculus [48] = experiment: Cardioprotective activity against isoproterenol-induced myocardial injury in C57/6J mouse model assessed as reduction in CK value in serum at 15 mg/kg, ip pretreated with isoproterenol for 3 days followed by compound addition and measured after 3 days by automatic biochemical analysis; type: functional, organism-based; conditions: time 3.0 day
Mus musculus [49] = experiment: Cardioprotective activity against isoproterenol-induced myocardial injury in C57/6J mouse model assessed as decrease in CK-MB level in serum at 15 mg/kg, ip pretreated with isoproterenol for 3 days followed by compound addition and measured after 3 days by automatic biochemical analysis; type: functional, organism-based; conditions: time 3.0 day
Mus musculus [50] = experiment: Cardioprotective activity against isoproterenol-induced myocardial injury in C57/6J mouse model assessed as effect on cTNI level in serum at 15 mg/kg, ip pretreated with isoproterenol for 3 days followed by compound addition and measured after 3 days by automatic biochemical analysis; type: functional, organism-based; conditions: time 3.0 day
[51] = Permeability of compound in MDCK cells; type: ADME, cell-based, Canis lupus familiaris; conditions: dog, read-out: permeability
[52] = Passive permeability in MDCK cells; type: ADME, cell-based, Canis lupus familiaris; conditions: dog, read-out: permeability

## CCC(CC)O[C@@H]1C=C(C(=O)OCCN2CCNCC2)C[C@H](N)[C@H]1NC(C)=O
H9c2 [1]
  Activity: Non-Toxic

## CCC(CC)O[C@@H]1C=C(C(=O)OCCN2CCOCC2)C[C@H](N)[C@H]1NC(C)=O
H9c2 [1]
  Activity: Non-Toxic
H9c2 [2]
  Activity: Non-Toxic
H9c2 [3]
  Activity: 6.07%
H9c2 [4]
  Activity: 0.15%
H9c2 [5]
  Activity: 48.9 nmol/mg
H9c2 [6]
  Activity: 203.6
[7]
  Time: 3.43 min
H9c2 [8]
  Activity: Active
H9c2 [9]
  Activity: Active
H9c2 [10]
  Activity: Active
H9c2 [11]
  Activity: Active
H9c2 [12]
  Activity: Active
H9c2 [13]
  Activity: Active
H9c2 [14]
  Activity: Dose-Dependent Effect
[15]
  half-life: 3.07 h
[16]
  microsomal CLint: 7.53 µL/min/mg
[17]
  remaining at 0.5 min: 100%
[18]
  remaining at 0.25 h: 89.9%
[19]
  remaining at 0.5 h: 83.9%
[20]
  remaining at 0.75 h: 83%
[21]
  remaining at 1 h: 77.2%
[22]
  remaining at 0.5 min: 100%
[23]
  remaining at 0.25 h: 106%
[24]
  remaining at 0.5 h: 109%
[25]
  remaining at 0.75 h: 104%
[26]
  remaining at 1 h: 97.2%
[27]
  half-life: 2.37 h
[28]
  Tmax: 0.25 h
[29]
  Cmax: 2380 ng/mL
[30]
  AUC(0-t) at 24 h: 2080 ng·h/mL
[31]
  AUC(0-inf): 2100 ng·h/mL
[32]
  MRT inf: 1.01 h
[33]
  AUClast/dose: 139 kg·ng·h/mL/mg
[34]
  Vd/F: 24 L/kg
[35]
  CL/F: 120 mL/min/kg
[36]
  Activity: Non-Toxic
Mus musculus [37]
  Activity: 4.35 mm
Mus musculus [38]
  Activity: 0.46%
Mus musculus [39]
  Activity: Active
Mus musculus [40]
  Activity: Active
Mus musculus [41]
  Activity: Active
Mus musculus [42]
  Activity: Active
Mus musculus [43]
  Activity: Active
Mus musculus [44]
  Activity: Active
Mus musculus [45]
  Activity: Active
Mus musculus [46]
  Activity: Active
Mus musculus [47]
  Activity: Active
Mus musculus [48]
  Activity: Active
Mus musculus [49]
  Activity: Active
Mus musculus [50]
  Activity: Active
[51]
  Papp: 44 ×10⁻⁶ cm/s
[52]
  Papp: > 20 ×10⁻⁶ cm/s
